Experimental data as given in patent publication US20260191818A1 (University of South Carolina, priority 2022, published 2026).

What was measured:
[1] = system: succinate dehydrogenase (SDH) activity; test: Myofiber metabolic phenotype, succinate dehydrogenase (SDH) staining of TA cryosections; type: in vivo, CD2F1 mice; conditions: C26+5FU+Quer vs C26+5FU
Description: To assess skeletal muscle myofiber metabolic phenotype succinate dehydrogenase (SDH) activity was measured. SDH is an enzyme bound to the inner mitochondrial membrane and SDH activity is higher in type 1 fibers. See, Zogby, A. M., et al., Skeletal muscle fiber-type specific succinate dehydrogenase activity in cerebral palsy. Muscle Nerve, 2017. 55(1): p. 122-124. TA tissue cryosections were taken out of the -80° C. and air dried on the laboratory bench and then incubated in an SDH staining solution containing 0.5 mg/ml nitroblue tetrazolium and (Sigma, Cat #: N5514) and 50 mM sodium succinate (Sigma, Cat #: S2378) in PBS for 30 min at 37° C. See, […]., et al., Eccentric contraction-induced myofiber growth in tumor-bearing mice. J Appl Physiol (1985), 2016. 120(1): p. 29-37. Slides were then washed in distilled water 3×1 min before mounting with warmed glycerol mounting media and cover slipped. Images of SDH stains were taken at 4×, 20×, and 40× using a Keyence BZX800 microscope. […] Images were inverted thus higher values corresponded with higher SDH activity.

[2] = system: ApcMin/+ model of intestinal cancer; conditions: 25 mg/kg of quercetin; cited from earlier work
C26 model of cachexia = conditions: Quercetin 35 mg/kg; cited from earlier work
[3] = system: mitochondrial complexes I-V, VDAC, cytochrome c; test: Western blot of rectus femoris, mitochondrial content proteins; type: in vivo, CD2F1 mice; conditions: C26+5FU+Quer vs C26+5FU; p=0.01
Description: Protein isolation and western blotting was completed similar to what has been previously described. See, Sougiannis, A. T., et al., Impact of weight loss and partial weight regain on immune cell and inflammatory markers in adipose tissue in male mice. J Appl Physiol (1985), 2020. 129(4): p. 909-919. The rectus femoris (RF) was teased from the other quadriceps muscles, cut in half (proximal/distal), snap frozen in liquid nitrogen, and stored at −80° C. The distal RF was homogenized in Mueller Buffer (50 mM Hepes, 0.1% Triton-x, 4 mM EGTA, 10 mM EDTA, 15 mM Na4P207, 100 mM β-glycerophosphate, 25 mM NaF, and 5 mM NaVO4, with protease inhibitor cocktail) using a bead homogenizer at 4° C. Samples were centrifuged and the supernatant was collected and diluted with a diluent buffer (50% Glycerol, 50 mM Na4P2O7, 2.5 mM EGTA, and 1 mM β-mercaptoethanol with protease inhibitor cocktail). Protein concentrations were determined using the Bradford standard protein assay and protein integrity was confirmed with SDS-PAGE and amido black staining. Between 10-50 μg of muscle protein homogenate was separated via SDS-PAGE and transferred to a PVDF membrane. Membranes were stained with Ponceau Red to confirm even loading and transfer efficiency. […] Images were then scanned, and relative protein expression was determined with ImageJ. […]

PPARG, PPARGCA1 = test: RT-PCR of rectus femoris, mitochondrial biogenesis genes; type: in vivo, CD2F1 mice; conditions: C26+5FU+Quer vs C26+5FU
Description: RNA from the proximal portion of the RF was isolated as previously described. […] Briefly, RNA was extracted from the RF using the […] procedure (Life Technologies, Gibco-BRL, Carlsbad, CA). RNA sample quality and quantities were verified using a Nanodrop One Microvolume UV-Vis Spectrophotometer (Thermo Fisher Scientific, Waltham, MA). […] Quantitative RT-PCR analysis was carried out as per the manufacturer's instructions (Applied Biosystems) using Taq-Man Gene Expression Assays.

CD2F1 mice = conditions: mouse, in vivo; cited from earlier work
[4] = system: STAT3, P65/NFκβ, P38/MAPK; test: Western blot of rectus femoris, inflammatory signaling proteins; type: in vivo, CD2F1 mice; conditions: C26+5FU+Quer vs C26+5FU
Description: Protein isolation and western blotting was completed similar to what has been previously described. See, Sougiannis, A. T., et al., Impact of weight loss and partial weight regain on immune cell and inflammatory markers in adipose tissue in male mice. J Appl Physiol (1985), 2020. 129(4): p. 909-919. The rectus femoris (RF) was teased from the other quadriceps muscles, cut in half (proximal/distal), snap frozen in liquid nitrogen, and stored at −80° C. The distal RF was homogenized in Mueller Buffer (50 mM Hepes, 0.1% Triton-x, 4 mM EGTA, 10 mM EDTA, 15 mM Na4P207, 100 mM β-glycerophosphate, 25 mM NaF, and 5 mM NaVO4, with protease inhibitor cocktail) using a bead homogenizer at 4° C. Samples were centrifuged and the supernatant was collected and diluted with a diluent buffer (50% Glycerol, 50 mM Na4P2O7, 2.5 mM EGTA, and 1 mM β-mercaptoethanol with protease inhibitor cocktail). Protein concentrations were determined using the Bradford standard protein assay and protein integrity was confirmed with SDS-PAGE and amido black staining. Between 10-50 μg of muscle protein homogenate was separated via SDS-PAGE and transferred to a PVDF membrane. Membranes were stained with Ponceau Red to confirm even loading and transfer efficiency. Membranes were then washed with tris buffered saline with 0.1% Tween (TBST) before blocking for 1 h at room temp with 5% milk TBST. Membranes were then incubated in primary anti-body (Table 1, see FIG. 8) overnight at 4° C. under gentle agitation. Membranes were then washed 3×5 min and incubated with the appropriate (anti-mouse or rabbit) HRP-linked secondary in 5% milk TBST for 1 h at room temperature. After a final 3×5 min wash membranes were incubated in chemiluminescent HRP substrate before visualization with a Syngene G:box. Images were then scanned, and relative protein expression was determined with ImageJ. Investigator was blinded to sample loading scheme and images were cropped after analysis for representation. All samples (full Ns) were run together for each protein. Dotted lines indicate where gels were cropped.

O=c1c(O)c(-c2ccc(O)c(O)c2)oc2cc(O)cc(O)c12 [quercetin, 3,4,5,7-pentahydroxylflavone]
CSA across glycolytic, mixed, and oxidative fibers according to SDH activity [1]: increase | mCSA and SDH across the spectrum of fibers analyzed [1]: increased | muscle mass and strength [2]: preserved muscle mass and strength | muscle mass loss (C26 model of cachexia): protected against muscle mass loss | change in expression of cytochrome c [3]: 48.9% | change in gene expression of PPARG (PPARG, PPARGCA1; p=0.04): −64.0% | change in PPARGCA1 gene expression (PPARG, PPARGCA1; without changes, p=0.36): 10.3% | sub-chronic toxicity (CD2F1 mice): no deleterious effects or toxicities | change in p/tP65 ([4]; increased, p=0.03): 41.9% | change in phospho:total P38 ([4]; p=0.19): −30.0% | change in phospho:total (p/t) STAT3 ([4]; p=0.36): 33.2%
